Source: patent US9452990B2, “Complement pathway modulators and uses thereof” (NOVARTIS AG, priority 2012, dated 2016)
Counter-ions that a name gives are not always drawn.

Molecular target: human complement factor B (CVF-Bb complex) (Homo sapiens (Human), UniProt P00751)
Assay: Human Complement Factor B ELISA Assay
Format: biochemical
Conditions: not given
Method: Human Complement Factor B ELISA Assay
CVF-Bb complex prepared from purified cobra venom factor (1 μM), recombinant human complement factor B (expressed in drosophila cells and purified using standard methods) and human complement factor D (expressed in E. Coli, refolded and purified using standard methods). CVF-Bb complex at 3 nM concentration was incubated with test compound at various concentrations for 1 hour at room temperature in PBS pH 7.4 containing 10 mM MgCl2 and 0.05% (w/v) CHAPS. Human complement C3 substrate purified from plasma was added to a final concentration of 1 μM. After 1 hour incubation at room temperature, the enzyme reaction was stopped by addition of a cocktail of concentrated pan-protease inhibitors. The product of the reaction, C3a, was quantified by means of an enzyme-linked-immunosorbent assay. IC50 values were calculated from percentage of inhibition of CVF-Bb activity as a function of test compound concentration.

| Structure (SMILES) | IC50 |
| --- | --- |
| COc1cc2c(N)nc(N3CCN(C(=O)C[C@@H](N)c4ccc(C#N)cc4)CC3)nc2c(F)c1OC [Example 44, 4-{(R)-1-Amino-3-[4-(4-amino-8-fluoro-6,7-dimethoxy-quinazolin-2-yl)piperazin-1-yl]-3-oxo-propyl}-benzonitrile hydrochloride] | 10 nM |
| COc1cc2c(N)nc(N3CCN(C(=O)C[C@@H](N)c4ccc(F)c(F)c4)CC3)nc2c(F)c1OC [Example 51, (R)-3-Amino-1-[4-(4-amino-8-fluoro-6,7-dimethoxy-quinazolin-2-yl)piperazin-1-yl]-3-(3,4-difluoro-phenyl)-propan-1-one hydrochloride] | 180 nM |
| CC[C@H]1CN(C(=O)C[C@@H](N)c2ccc(F)cc2)CCN1c1nc(N)c2cc(OC)c(OC)c(F)c2n1 [Example 65, (R)-3-Amino-1-[(S)-4-(4-amino-8-fluoro-6,7-dimethoxy-quinazolin-2-yl)-3-ethyl-piperazin-1-yl]-3-(4-fluoro-phenyl)-propan-1-one hydrochloride] | 30 nM |

Same assay, conditions: CVF-Bb complex 3 nM, 1 hour preincubation with compound at room temperature, human C3 substrate 1 μM, C3a quantified by ELISA; read-out: Factor B IC50

| Structure (SMILES) | IC50 |
| --- | --- |
| COc1cc2c(N)nc(N3CCN(C(=O)[C@@H]4CCc5ccccc5[C@@H]4N)CC3)nc2c(F)c1OC [Example 104, [4-(4-Amino-8-fluoro-6,7-dimethoxy-quinazolin-2-yl)-piperazin-1-yl]-((1R,2R)-1-amino-1,2,3,4-tetrahydro-naphthalen-2-yl)-methanone] | 760 nM |
| CCC[C@H]1CN(C(=O)C[C@@H]2CCCN2)CCN1c1nc(N)c2cc(OC)c(OC)c(F)c2n1 [Example 118, 1-[(S)-4-(4-Amino-8-fluoro-6,7-dimethoxy-quinazolin-2-yl)-3-propyl-piperazin-1-yl]-2-(S)-pyrrolidin-2-yl-ethanone] | 270 nM |
| CCN[C@H](CC(=O)N1CCN(c2nc(N)c3cc(OC)c(OC)c(F)c3n2)CC1)c1ccc(C#N)cc1 [Example 90, (R)-4-(3-(4-(4-amino-8-fluoro-6,7-dimethoxyquinazolin-2-yl)piperazin-1-yl)-1-(ethylamino)-3-oxopropyl)benzonitrile] | 1 nM |
| COc1cc2c(N)nc(N3CCN(C(=O)c4cc5cc(F)ccc5[nH]4)C[C@@H]3C)nc2c(F)c1OC [Example 24, [(S)-4-(4-Amino-8-fluoro-6,7-dimethoxy-quinazolin-2-yl)-3-methyl-piperazin-1-yl]-(5-fluoro-1H-indol-2-yl)-methanone] | 90 nM |
| CC[C@H]1CN(C(=O)/C=C/c2ccc(C#N)cc2)CCN1c1nc(N)c2cc(OC)c(OC)c(F)c2n1 [Example 8, 4-{(E)-3-[(S)-4-(4-Amino-8-fluoro-6,7-dimethoxy-quinazolin-2-yl)-3-ethyl-piperazin-1-yl]-3-oxo-propenyl}-benzonitrile] | 11 nM |
| COc1cc2c(N)nc(N3CCN(C(=O)C[C@H](c4ccc(F)cc4)N4CCC4)CC3)nc2c(F)c1OC [Example 96, (R)-1-(4-(4-amino-8-fluoro-6,7-dimethoxyquinazolin-2-yl)piperazin-1-yl)-3-(azetidin-1-yl)-3-(4-fluorophenyl)propan-1-one] | 10 nM |
| COc1cc2c(N)nc(N3CCN(C(=O)C[C@@H](NCCF)c4ccc(F)cc4)CC3)nc2c(F)c1OC [Example 98] | 6 nM |
| COCCOc1c(OC)cc2c(N)nc(N3CCN(C(=O)C[C@@H]4CCCCN4)CC3)nc2c1F [Example 125, 1-{4-[4-Amino-8-fluoro-6-methoxy-7-(2-methoxy-ethoxy)-quinazolin-2-yl]-piperazin-1-yl}-2-(S)-piperidin-2-yl-ethanone] | 9950 nM |
| CC[C@H]1CN(C(=O)[C@@H]2CCc3ccccc3[C@@H]2N)CCN1c1nc(N)c2cc(OC)c(OC)c(F)c2n1 [Example 106, [(S)-4-(4-Amino-8-fluoro-6,7-dimethoxy-quinazolin-2-yl)-3-ethyl-piperazin-1-yl]-((1R,2R)-1-amino-1,2,3,4-tetrahydro-naphthalen-2-yl)-methanone] | 2660 nM |
| COc1cc2c(N)nc(N3CCN(C(=O)C[C@@H](N)c4ccccc4)CC3)nc2c(C#N)c1OC [Example 75, 4-Amino-2-[4-((R)-3-amino-3-phenyl-propionyl)-piperazin-1-yl]-6,7-dimethoxy-quinazoline-8-carbonitrile] | 760 nM |
